Values of other authors as cited in patent US8691571B1, “Extending tissue preservation” (University of South Florida, priority 1998, dated 2014).

System: rabbit cornea
Settings: addition to storage medium; without changing metabolic activity for at least 11 days

SMILES: CC(O)CC(=O)O (stereo not drawn) [beta-hydroxy butyrate]
- diminished lactic acid concentration of rabbit cornea: 85%
